Measured values as given in US7544814B2, “[3.2.0] Heterocyclic compounds and methods of using the same” (Nereus Pharmaceuticals, Inc., priority 2004, dated 2009).
Values joined by “and” are separate entries in the source; they are usually repeats but may differ in a detail not shown here. Equal entries are not always repeated. Where two headings read alike, the source gives them in different places.

Assays:
[1] = tested on: RPMI 8226; experiment: Cell growth inhibition (resazurin), RPMI 8226; conditions: for EC50: Homo sapiens; for cytotoxicity against RPMI 8226, in words: from EC50 values
[2] = tested on: U266; experiment: Cell growth inhibition (resazurin), U266; conditions: for EC50: 48 hours drug exposure; for cytotoxicity against U266, in words: from EC50 values
[3] = target: T1, trypsin-like activity of purified rabbit muscle 20S proteasome (Oryctolagus cuniculus, UniProt G1SWK8); experiment: biochemical
T1 sequence (G1SWK8 1-271): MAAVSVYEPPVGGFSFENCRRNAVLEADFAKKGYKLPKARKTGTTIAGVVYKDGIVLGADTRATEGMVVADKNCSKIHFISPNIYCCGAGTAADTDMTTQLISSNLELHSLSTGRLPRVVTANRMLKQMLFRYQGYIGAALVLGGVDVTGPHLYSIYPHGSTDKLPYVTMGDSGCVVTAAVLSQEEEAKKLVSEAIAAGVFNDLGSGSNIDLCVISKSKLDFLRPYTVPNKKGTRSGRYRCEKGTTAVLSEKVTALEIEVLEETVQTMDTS

[4] = target: T1, trypsin-like activity of purified rabbit muscle 20S proteasome; experiment: In vitro inhibition of 20S proteasome trypsin-like activity (Boc-LRR-AMC); conditions: under the conditions tested
[5] = target: T2, chymotrypsin-like activity of purified rabbit muscle 20S proteasome (Oryctolagus cuniculus, UniProt G1T4Q9); experiment: In vitro inhibition of 20S proteasome chymotrypsin-like activity (suc-LLVY-AMC)
T2 sequence (G1T4Q9 1-263): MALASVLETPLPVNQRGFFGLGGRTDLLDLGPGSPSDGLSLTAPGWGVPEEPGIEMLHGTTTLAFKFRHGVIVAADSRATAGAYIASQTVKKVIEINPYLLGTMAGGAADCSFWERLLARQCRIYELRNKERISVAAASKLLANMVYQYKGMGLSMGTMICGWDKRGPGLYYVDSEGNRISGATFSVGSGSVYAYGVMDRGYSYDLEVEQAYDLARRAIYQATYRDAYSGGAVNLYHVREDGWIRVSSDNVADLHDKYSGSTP

[6] = target: T3, caspase-like activity of purified rabbit muscle 20S proteasome (Oryctolagus cuniculus, UniProt A0A5F9DQW2); experiment: In vitro inhibition of 20S proteasome caspase-like activity (Z-LLE-AMC)
T3 sequence (A0A5F9DQW2 1-212): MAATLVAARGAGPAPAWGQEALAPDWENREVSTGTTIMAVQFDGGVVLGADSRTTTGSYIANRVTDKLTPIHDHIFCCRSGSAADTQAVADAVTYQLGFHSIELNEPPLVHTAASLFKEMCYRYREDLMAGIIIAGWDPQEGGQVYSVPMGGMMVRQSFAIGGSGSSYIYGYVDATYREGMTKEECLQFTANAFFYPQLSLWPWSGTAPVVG

[7] = target: T4, chymotrypsin-like activity of 20S proteasomes in PC-3 cells (Homo sapiens, UniProt P28074); experiment: Chymotrypsin-like activity of 20S proteasomes in lysates of treated PC-3 cells; type: cell-based; conditions: PC-3, read-out: % inhibition of the chymotrypsin-like activity of 20S proteasomes in PC-3 cell lysates; 100 nM; 1 hr incubation
T4 construct: endogenous in cells; host or cells: PC-3 (ATCC CRL-1435)
Description: PC-3 (ATCC, CRL-1435), the human prostate cancer cell line, was cultured in F12K medium supplemented with 2 mM L-glutamine, 100 units/ml penicillin, 100 μg/ml streptomycin and 10% heat inactivated fetal bovine serum at 37° C., 5% CO2 and 95% humidified air. […] DMSO was used as the vehicle control at a final concentration of 0.1%. Following 1 hr incubation of PC-3 cells with the compounds, the cells were washed 3× with ice-cold 1× Dulbecco's Phosphate-Buffered Saline (DPBS, Mediatech, Herndon, Va.). […] Cell debris was pelleted by centrifugation at 14,000 rpm for 10 min, 4° C. and supernatants (=cell lysates) were transferred to a new tube. Protein concentration was determined by the BCA protein assay kit (Pierce Biotechnology, Rockford, Ill.). […] The released coumarin (AMC) was measured fluorometrically by using λex=390 nm and λem=460 nm. The assay was performed in a microtiter plate (Corning 3904) and followed kinetically with measurements every five minutes for 2 hr. The total amount of protein used for each assay was 20 μg. The final concentration of Suc-LLVY-AMC and DMSO was 20 μM and 0.2%, respectively. Results are presented as the percent inhibition of the 20S proteasome chymotrypsin-like activity relative to the DMSO control.

[8] = tested on: NF-κB; experiment: NF-κB-mediated luciferase reporter gene assay, HEK293 NF-κB/Luc cells, TNF-α stimulation; type: cell-based, human; conditions: for EC50: Homo sapiens; for effect on luciferase activity upon TNF-α stimulation, in words: pretreatment of NF-κB/Luc 293 cells
Outline: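 Cells seeded at 1.5×10^4/well in phenol-red free DMEM, pretreated 1 h with 8-point half-log compound dilutions (DMSO stocks), then stimulated with TNF-α (10 μl of 50 ng/ml solution) for 6 h. Luciferase read as RLU after 10 min with Steady Lite reagent at room temperature.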

[9] = tested on: MDA-MB-231; experiment: Cell growth inhibition (resazurin), MDA-MB-231; conditions: from EC50 values
[10] = tested on: PC-3; experiment: Cell growth inhibition (resazurin), PC-3; type: cell-based, human; conditions: from EC50 values
[11] = RPMI-8226, read-out: Cytotoxicity RPMI EC50, Table 12
[12] = EC50 Chymotrypsin-like, Table 6, values in nM
[13] = Proteasome Chymotrypsin-like EC50, Table 12
[14] = Proteasome Caspase-like EC50, Table 12
[15] = HEK293, read-out: NF-κB EC50, Table 12

C[C@H]1C(=O)N[C@@]2(C(O)[C@@H]3C=CCCC3)C(=O)O[C@@]12C (single isomer, unassigned) [Formula II-20]
EC50 ([1]; RPMI-8226, 48 h, read-out: RPMI 8226 EC50, Table 2, 48 hours drug exposure, mean ± SD where n≥3): 8510 ± 3260 nM | EC50 [1, 11]: 8510 ± 3260 nM | cytotoxicity against RPMI 8226, in words [1]: cytotoxic | EC50 ([2]; Homo sapiens, U-266, 48 h, read-out: U266 EC50, Table 2): 310 nM | cytotoxicity against U266, in words [2]: cytotoxic | EC50 ([2]; read-out: U266 EC50, Table 2): 442 nM | EC50 [3]: 318 nM and 321 nM | inhibition of the trypsin-like activity of the 20S proteasome, in words [4]: able to inhibit | EC50 [5, 12]: 7.7 ± 3 nM | EC50 [5, 13]: 7.7 ± 3 nM | EC50 ([6]; EC50 Caspase-like, Table 6, values in μM): 1.4 µM | EC50 ([6]; EC50 values, caspase-like activity, range in mixed units, summary of Table 6, range from nM to μM): 0.956 to 8.7 µM | EC50 [6, 14]: 1.42 µM | inhibition at 0.1 µM [7]: 57% | EC50 [8, 15]: 849 ± 225 nM | effect on luciferase activity upon TNF-α stimulation, in words [8]: dose-dependent decrease

C[C@@]12OC(=O)[C@]1([C@@H](O)[C@@H]1C=CCCC1)NC(=O)[C@@H]2CCBr [Formula II-18]
EC50 [1, 11]: 6.3 nM | cytotoxicity against RPMI 8226, in words [1]: cytotoxic | cytotoxicity against MDA-MB-231, in words [9]: cytotoxic | cytotoxicity against U266, in words [2]: cytotoxic | inhibition of the trypsin-like activity of the 20S proteasome, in words [4]: able to inhibit | EC50 [5, 12]: 2.3 nM | EC50 ([5]; EC50 values, chymotrypsin-like activity, summary of Table 6): 2 to 11 nM | EC50 [5, 13]: 2.3 nM and 2 nM | cytotoxicity against PC-3, in words [10]: cytotoxic | EC50 ([6]; EC50 Caspase-like, Table 6, values in nM): 0.286 µM and 0.213 µM | EC50 ([6]; EC50 values, caspase-like activity, summary of Table 6): 0.213 to 0.85 µM | EC50 [6, 14]: 0.286 µM and 0.213 µM | EC50 ([8]; HEK293, read-out: EC50, NF-κB-mediated luciferase reporter gene assay, Table 5, values in nM, 1 hr pretreatment, TNF-α 6 hr): 9 nM | EC50 [8, 15]: 11 nM | effect on luciferase activity upon TNF-α stimulation, in words [8]: dose-dependent decrease
